{
  "source": "patent US6737039B2",
  "about": "“Methods for detecting lesions in dense breast tissue using LHRH antagonists” (Praecis Pharmaceutics, Inc., priority 1998, dated 2004)",
  "key": {"testosterone levels": {"test_system": "testosterone levels", "test": "continuous subcutaneous infusion via osmotic pump, testosterone", "format": "in vivo, rats", "protocol": "(§1) Moreover, upon administration, PPI-149 rapidly reduces sex hormone levels to castrate levels. […] Testosterone levels returned to normal by 24 hours after the 300 μg/kg dose, but not until 72 hours after the 1000 μg/kg dose."}, "[1]": {"test_system": "plasma testosterone levels", "test": "eight intravenous doses every three hours, plasma testosterone", "format": "in vivo, rats", "protocol": "as §1"}, "[2]": {"test_system": "plasma testosterone levels", "test": "single dose in male rats, plasma testosterone", "format": "in vivo", "protocol": "as §1"}},
  "note": "Non-standard residues stand in square brackets, D forms with d. Residues, ends and D or L forms follow the SMILES beside them. dPhe(4-Cl) = N[C@H](Cc1ccc(Cl)cc1)C(=O)O; d2Nal = N[C@H](Cc1ccc2ccccc2c1)C(=O)O; Lys(iPr) = CC(C)NCCCC[C@H](N)C(=O)O; NMeY = CN[C@@H](Cc1ccc(O)cc1)C(=O)O; d3Pal = N[C@H](Cc1cccnc1)C(=O)O",
  "data": [
    {"smiles": "CC(=O)N[C@H](Cc1ccc2ccccc2c1)C(=O)N[C@H](Cc1ccc(Cl)cc1)C(=O)N[C@H](Cc1cccnc1)C(=O)N[C@@H](CO)C(=O)N(C)[C@@H](Cc1ccc(O)cc1)C(=O)N[C@H](CC(N)=O)C(=O)N[C@@H](CC(C)C)C(=O)N[C@@H](CCCCNC(C)C)C(=O)N1CCC[C@H]1C(=O)N[C@H](C)C(N)=O", "note": "[PPI-149, Ac-D-Nal^1,4-Cl-D-Phe^2, D-Pal^3, N—Me-Tyr^5, D-Asn^6, Lys(iPr)^8, D-Ala^10-LHRH] (Ac-[d2Nal][dPhe(4-Cl)][d3Pal]S[NMeY][dN]L[Lys(iPr)]P[dA]-NH2)", "values": [
      {"measurement": "recovery of testosterone levels following pump removal", "setting": "testosterone levels; after four weeks of continuous subcutaneous infusion", "result": "complete within two weeks"},
      {"measurement": "time castration level was maintained by subsequent low doses", "setting": "testosterone levels; after the high dose, 5, 15 or 50 μg/kg/day by continuous subcutaneous infusion", "result": 21, "unit": "days"},
      {"measurement": "time to castrate levels of testosterone", "setting": "testosterone levels; continuous subcutaneous infusion, 300 or 1000 μg/kg/day for two weeks", "result": "≤ 7", "unit": "days"},
      {"measurement": "histamine releasing activity", "setting": "histamine release", "result": "low"},
      {"measurement": "plasma testosterone levels", "setting": "[1]; eight intravenous doses of 1 μg/kg every three hours (8 μg/kg/day)", "result": "significant decrease"},
      {"measurement": "testosterone levels", "setting": "[1]; eight intravenous doses of 10 μg/kg every three hours (80 μg/kg/day)", "result": "castrate levels of testosterone were achieved"},
      {"measurement": "time for testosterone levels to return to normal", "setting": "[2]; single dose 300 μg/kg", "result": "≤ 24", "unit": "h"},
      {"measurement": "time for testosterone levels to return to normal", "setting": "[2]; single dose 1000 μg/kg", "result": 72, "unit": "h"},
      {"measurement": "plasma testosterone levels", "setting": "[2]; single dose 300 or 1000 μg/kg, by 6 hours post-administration", "result": "decreased to nearly undetectable levels"}
    ]}
  ]
}
